In a compilation of properties of binary mixtures (doi:10.1590/0104-6632.20180352s20160280):

Assay: xn = mol fraction of the nth substance listed
Settings: 100 kPa

O=C[O-].OCC[NH2+]CCO + O
viscosity [mPa·s]
Settings | x1 = 0.0292 | x1 = 0.075 | x1 = 0.1516 | x1 = 0.2184 | x1 = 0.3185 | x1 = 0.5155 | x1 = 0.5932 | x1 = 0.7378 | x1 = 0.7987 | x1 = 1
293.15 K | 1.69 | – | 8.2 | 16.1 | – | 112 | 133 | 243 | 329 | –
303.15 K | – | 2.5 | 5.9 | 11 | 23.2 | 65 | 76 | 132 | – | 242
313.15 K | 1.1 | – | 4.48 | 8 | 15.8 | 40.7 | 46.6 | 77 | 99 | 135
323.15 K | 0.93 | 1.64 | 3.51 | 6 | 11.3 | 27.1 | 30.6 | 49 | 61 | 82
333.15 K | 0.8 | 1.38 | 2.82 | 4.68 | – | 19 | 21.2 | 32.8 | – | 53
343.15 K | 0.7 | 1.18 | 2.33 | 3.75 | 6.5 | 13.9 | – | 23 | 27.8 | –

O + O=C[O-].OCC[NH2+]CCO
x2 = 0
Settings | viscosity [mPa·s]
293.15 K | 1
303.15 K | 0.82
333.15 K | 0.5
343.15 K | 0.451
